In patent US6376175B1, “Methods of discovering chemicals capable of functioning as gene expression modulators” (OSI Pharmaceuticals, Inc., priority 1989, dated 2002):

Legend:
G-CSF promoter = experiment: G-CSF promoter-luciferase induction by known inducers, clone G 1002 (5637 cells); format: cell-based, human
Description: Cloning of G-CSF sequences is described in Experimental Details, section B-3. In order to correctly fuse the G-CSF upstream sequences to the luciferase start codon, oligonucleotides were synthesized which contain the G-CSF leader sequence from +15 to the ATG (32), and were cloned into pUC19 to create pGUC84 (FIG. 29). […] The G-CSF-oligonucleotide-containing NcoI/ScaI fragment from pGUC84 was then isolated and ligated to the luciferase-containing NcoI/ScaI fragment from pUV100 to create pGUV100 (FIG. 30). Following this, the PstI fragment of the G-CSF promoter was isolated form pJM710 (FIG. 7) and inserted into the PstI site in pGUV100 generating pGUV1(FIG. 31). The rest of the G-CSF promoter clone was added by ligating the G-CSF-luciferase containing SfiI/ScaI fragment from pGUV1 to the appropriate SfiI/ScaI fragment from pJM710, creating the plasmid pGUV2 (FIG. 32). The XbaI fragment from pGUV2 containing the G-CSF-luciferase fusion was then cloned into pUV103 previously digested with XbaI/SpeI, generating pGUV140 (FIG. 33). Finally, a TK-Neo cassette (Section C) was included by ligating the ScaI/XbaI fragment from pGUV140 which contains the G-CSF-luciferase fusion into pTKNEO103 previously digested with ScaI/XbaI, yielding the final vector pGUV150 (FIG. 34).
All the following constructs were transfected into 5637 bladder carcinoma cells either by electroporation using a BRL (Gaithersburg, Md.) Cellporator electroporation device or by lipofection using BRL lipofectin and following the manufacturer's protocol. For electroporation, cells were trypsinized, treated with Soybean trypsin inhibitor (1 mg/ml), washed three times in Dulbecco's modified Eagle's medium (DMEM) without pH indicator, and 1 ml of cell suspension in DMEM was electroporated at room temperature and at a cell density of 5 million cells per ml at a voltage of 250 V and a capacitance of 1180 microFarad with the electroporation device set at low resistance. In previous experiments these parameters had been determined to result in optimal electroporation efficiency. About 15 min after electroporation cells were recovered from the disposable electroporation containers (BRL, Gaithersburg, Md.) and plated in RPMI containing 10% fetal calf serum. 2 days after electroporation 0.4 mg/ml G 418 were added and clonal cell colonies were picked 14-20 days after transfection. Clones were first analysed for luciferase expression using Lysis Buffer 1 without bovine serum albumin (see Section F) and those testing positive expanded further and frozen in liquid nitrogen. Further analysis of 6 clones (G 1002, G 2005, G 2071, G 2085, G 3014, G3031) included Southern blotting, reaction to known inducers, satisfactory attachment to microtiter plates and acceptable standard deviation in multiple luciferase expression assays. Clones G 2005 and G 2085 were derived from 5637 cells lipofected with 100 ug/ml of linearized pGVU150 (FIG. 34), G 3031 descends from cells electroporated with 100 ug/ml of linearized pGVU150, whereas 200 ug/ml of the same plasmid were used to generate G 3014. Cotransfection of circular pGVU140 (FIG. 33) with circular pTKNeo3 (FIG. 19) was used to generate clones G 1002 and G 2071. While G 1002 resulted from co-electroporation of 50 and 5 ug/ml of the two plasmids, G 2071 descends from cells lipofected with 100 and 10 ug.
Cell clones with correctly integrated promoter/reporter constructs were analysed for correct reaction to known transcriptional inducers. […] Both TNF-alpha- and PMA-induction levels of clone G 1002 were influenced by the presence or absence of epidermal growth factor (EGF). […] The 9.3fold induction by PMA in the absence of EGF was reduced to 5.6fold by including EGF in the serum-free incubation mixture. Similar differences were observed, when EGF was substituted by 10% fetal calf serum.

GM-CSF promoter = experiment: GM-CSF promoter-luciferase induction by known inducers, clones GM 1073, GM 1088, GM 1105; format: cell-based, human; conditions: for luciferase expression induction, clone 1088: GM-CSF reporter clone GM 1088; for luciferase expression induction, clone 1105: GM-CSF reporter clone GM 1105
Procedure: All routine subcloning procedures were performed as described by Maniatis et al. (1982), (28) unless otherwise noted. The about 0.7 kb HindIII/RsaI fragment of the GM-CSF clone (FIG. 20) was inserted into pUC 18 previously digested with HindIII/HincII. The about 0.7 kb HindIII/SmaI fragment was then isolated from the resulting vector and cloned into pUV 100 digested previously with HindIII/SnaBI, thereby generating pGMLUCI (FIG. 22.) In order to correctly fuse the GM-CSF ATG with the coding region of luciferase, four oligonucleotides (FIG. 21) were synthesized, phosphorylated, annealed, ligated, and inserted into pUC19 previously digested with Eco RI/XbaI, generating pGM-1 (FIG. 22). pGM-1 was then sequences (Sequenase Kit, US Biochemicals, Cleveland, Ohio) using the M13 forward (U.S. Biochem.) and reverse primers (Pharmacia, Piscataway, N.J.) to ensure that there were no mutations in the synthesized oligonucleotides. The about 1.8 kb BstEII/ScaI fragment from pGM-1 was then isolated and ligated to about 1.5 kb BstEII/ScaI fragment from pGMLUCI to generate pGM-2 (FIG. 22). pGM-2 was then digested with Hind III/XbaI and about 0.7 kb fragment was cloned into pUV 102 and pUV 103 previously digested with HindIII/XbaI. This generated pGMLS102 and pGMLS103 (FIG. 22), which contain 663 bp of GM-CSF sequence 5′ of the ATG fused directly to the second (correct) ATG of luciferase and the rest of the luciferase coding region. An additional about 1.4 kb of upstream sequences were cloned into this construct by isolating the about 1.4 kb SalI/HindIII fragment from the GM-CSF clone (FIG. 20), blunting the SalI end by filling in with Klenow polymerase, and inserting the fragment into pGMLS102 and pGMSL103 previously digested with HindIII/SnaBI. This step generated pGMLL102 and PGMLL103, respectively (FIG. 23). Finally, the pTKNEO2 and PTKNEO3 about 1.8 kb SfiI fragments were cloned directly into the SfiI site of pGMLL103 to generated pGMLL103 NEO2 and pGMLL103 NEO3.
6 clones generated by electroporation with pGMLL103 NEO3 (FIG. 23; Materials and Methods, section D.2) were subjected to further analysis as described above: GM 1073 (10 ug; circular); GM 1081, 1088 and 1090 (5 ug; linear); and GM 1098 and 1105 (10 ug; linear).
Promoter induction experiments were also conducted with the GM-CSF reporter cell lines GM 1073, GM 1088 and GM 1105, which were all shown to contain correctly inserted constructs (see above). […] Luciferase expression of clones 1088 and 1105 was induced by PMA 2.8 fold and 2 fold, respectively, while TNF-alpha induced both clones 2 fold.

[1] = 7-hour incubation, serum-free defined media with 20 ng/ml EGF
[2] = 7-hour incubation, serum-free defined media, absence of EGF
[3] = 10.5 hours, serum-containing media, 8.3 ng/ml TNF-alpha, 20 ng/ml PMA, 0.5 ng/ml Interleukin-1 beta, or mixtures as labelled

| Compound | G-CSF promoter induction, clone G 1002 (G-CSF promoter; [1]) [fold] | G-CSF promoter induction, clone G 1002 (G-CSF promoter; [2]) [fold] | G-CSF promoter induction, clone G 1002 (G-CSF promoter; [3]) [fold] | GM-CSF promoter induction, GM 1073 cells (GM-CSF promoter; 10.5 hours, 20 ng/ml PMA, serum-containing media) [fold] | luciferase expression induction, clone 1088 (GM-CSF promoter) [fold] | luciferase expression induction, clone 1105 (GM-CSF promoter) [fold] | GM-CSF promoter induction, GM 1073 cells (GM-CSF promoter; PMA, serum-free media) [fold] |
| --- | --- | --- | --- | --- | --- | --- | --- |
| CCCCCCCCCCCCCC(=O)O[C@@H]1[C@@H](C)[C@@]2(O)[C@@H](C=C(CO)C[C@]3(O)C(=O)C(C)=C[C@@H]23)[C@@H]2C(C)(C)[C@]12OC(C)=O [PMA, phorbo-myristate-acetate, reference compound] | 5.6 | 9.3 | 4.4 | 3.4 | 2.8 | 2 | 7.5 |
| TNF-alpha | 3 | 4 | 2 | – | 2 | 2 | – |
